# Laboratory results published in US20240409585A1, “MACROCYCLIC IMMUNOMODULATORS” (priority 2021, published 2024).
# Numbered stars: 1 amine (or outer) side, 2 acyl side, 3 side chain; on linkers, the order of the positions; unused ones are H or OH. Bridge positions count the residues as written; N and C are the ends. Square brackets hold non-standard residues; d marks the D form. Peptide text beside a SMILES is read from it. * marks the point of attachment. ξ: configuration not given here. X19 = Cc1cccc(-c2ccc(C[C@H](N[*:1])C(=O)[*:2])cc2)c1; Phe(3-CF3) = N[C@@H](Cc1cccc(C(F)(F)F)c1)C(=O)O; Phe(4-COOH) = N[C@@H](Cc1ccc(C(=O)O)cc1)C(=O)O; Phe(4-CH2NH2) = NCc1ccc(C[C@H](N)C(=O)O)cc1; Bip = N[C@@H](Cc1ccc(-c2ccccc2)cc1)C(=O)O; Phe(3-Me) = Cc1cccc(C[C@H](N)C(=O)O)c1; Val(3-OH) = CC(C)(O)[C@H](N)C(=O)O; ξPhe(2-Me) = Cc1ccccc1CC(N)C(=O)O; hArg = N=C(N)NCCCC[C@H](N)C(=O)O; 4Pal = N[C@@H](Cc1ccncc1)C(=O)O; 3Thi = N[C@@H](Cc1ccsc1)C(=O)O; Cha = N[C@@H](CC1CCCCC1)C(=O)O; Cit = NC(=O)NCCC[C@H](N)C(=O)O; Ile(3ξ) = CCC(C)[C@H](N)C(=O)O; Thr(3ξ) = CC(O)[C@H](N)C(=O)O; Dap(Me) = CNC[C@H](N)C(=O)O; Carboxymethyl = O=C(O)C*; NMeA = CN[C@@H](C)C(=O)O; Nle = CCCC[C@H](N)C(=O)O; Orn = NCCC[C@H](N)C(=O)O; Dab = NCC[C@H](N)C(=O)O; Dap = NC[C@H](N)C(=O)O
# Biological target: T1, PE-labeled human PD-L1-Ig binding to Jurkat cell line over-expressing human PD-1 (Jurkat-PD-1) (Homo sapiens, UniProt Q15116)
# T1 construct: expressed in transfected cells; host or cells: Jurkat
# Assay: Jurkat-PD-1 Cell Binding High-Content Screening Assay (CBA): Method 1
# Conditions: Jurkat-hPD-1 cells, PE-labeled PD-L1-Ig 20 nM final; read-out: Jurkat HPDL1 PD1 IC50 (uM) (Method 1)
# T1 sequence (Q15116 25-288): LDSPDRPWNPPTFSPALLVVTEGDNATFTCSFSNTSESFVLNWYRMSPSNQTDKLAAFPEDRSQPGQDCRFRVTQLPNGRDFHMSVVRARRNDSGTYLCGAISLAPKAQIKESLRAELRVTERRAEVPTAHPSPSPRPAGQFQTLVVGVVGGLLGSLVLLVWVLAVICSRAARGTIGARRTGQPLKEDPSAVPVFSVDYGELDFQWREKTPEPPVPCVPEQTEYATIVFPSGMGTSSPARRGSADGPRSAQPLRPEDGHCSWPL
row,Structure (SMILES),IC50 [µM]
1,CC(C)C[C@@H]1NC(=O)[C@H](Cc2c[nH]c3ccccc23)NC(=O)[C@H](CC(=O)O)NC(=O)[C@H](Cc2ccc(O)cc2)NC(=O)[C@H](Cc2ccccc2)NC(=O)CSC[C@@H](C(=O)NCC(N)=O)NC(=O)[C@H](CO)NC(=O)[C@H](C(C)C)NC(=O)[C@H](CC(C)C)NC(=O)[C@H](CC(N)=O)NC(=O)[C@@H](C)NC(=O)[C@H](C)N(C)C(=O)[C@H](C(C)C)NC(=O)[C@H](Cc2ccc(-c3ccccc3)cc2)NC1=O [Compound 1729] ({CH2CO}-FYDWL[Bip]V[NMeA][dA]NLVSCG-NH2; thioether N-14),0.01
2,Cc1cccc(-c2ccc(C[C@@H]3NC(=O)[C@H](CC(C)C)NC(=O)[C@H](Cc4c[nH]c5ccccc45)NC(=O)[C@H](CC(=O)O)NC(=O)[C@H](Cc4ccc(O)cc4)NC(=O)[C@H](Cc4ccccc4)NC(=O)CSC[C@@H](C(=O)N[C@@H](C)C(N)=O)NC(=O)[C@H](CO)NC(=O)[C@H](C(C)C)NC(=O)[C@H](CC(C)C)NC(=O)[C@H](CC(N)=O)NC(=O)[C@@H](C)NC(=O)[C@H](C)N(C)C(=O)[C@H](C(C)C)NC3=O)cc2)c1 [Compound 1788] ({CH2CO}-FYDWL[X19]V[NMeA][dA]NLVSCA-NH2; thioether N-14),0.11
3,CC(C)C[C@@H]1NC(=O)[C@H](CCN)NC(=O)[C@@H](CC(C)C)NC(=O)[C@H](C)N(C)C(=O)[C@H](C(C)C)NC(=O)[C@H](Cc2ccc(-c3ccccc3)cc2)NC(=O)[C@H](C(C)C)NC(=O)[C@H](Cc2cccc(C(F)(F)F)c2)NC(=O)[C@H](CC(=O)O)NC(=O)[C@H](Cc2ccc(O)cc2)NC(=O)[C@H](CC(N)=O)NC(=O)CSC[C@@H](C(=O)N[C@@H](C)C(N)=O)NC(=O)[C@H]([C@@H](C)O)NC(=O)[C@H](C(C)C)NC1=O [Compound 1290] ({CH2CO}-NYD[Phe(3-CF3)]V[Bip]V[NMeA][dL][Dab]LVTCA-NH2; thioether N-14),0.01
4,CCC(C)[C@@H]1NC(=O)[C@H](Cc2ccc(-c3ccccc3)cc2)NC(=O)[C@H](C(C)C)NC(=O)[C@H](Cc2c[nH]c3ccccc23)NC(=O)[C@H](CC(=O)O)NC(=O)[C@H](Cc2ccc(OCC(=O)O)cc2)NC(=O)[C@H](C(C)O)NC(=O)CSC[C@@H](C(=O)N[C@@H](CCCN)C(N)=O)NC(=O)[C@H](C(C)O)NC(=O)[C@H](C(C)C)NC(=O)[C@H](CC2CCCCC2)NC(=O)[C@H](CCN)NC(=O)[C@@H](CC(C)C)NC(=O)[C@H](C)N(C)C1=O (stereo partly drawn) [Compound 2153] ({CH2CO}-[Thr(3ξ)]Y(Carboxymethyl)DWV[Bip][Ile(3ξ)][NMeA][dL][Dab][Cha]V[Thr(3ξ)]C[Orn]-NH2; thioether N-14),0.02
5,Cc1ccccc1CC1NC(=O)[C@H](C)N(C)C(=O)[C@H](CCCNC(=N)N)NC(=O)[C@H](Cc2ccc(-c3ccccc3)cc2)NC(=O)[C@H](C(C)C)NC(=O)[C@H](Cc2c[nH]c3ccccc23)NC(=O)[C@H](CC(=O)O)NC(=O)[C@H](Cc2ccc(O)cc2)NC(=O)[C@H](Cc2ccccc2)NC(=O)CSC[C@@H](C(=O)N[C@@H](C)C(N)=O)NC(=O)[C@H]([C@@H](C)O)NC(=O)[C@H](C(C)C)NC(=O)[C@H](CC(C)C)NC(=O)[C@H](CCCNC(=N)N)NC1=O (stereo partly drawn) [Compound 1065] ({CH2CO}-FYDWV[Bip]R[NMeA][ξPhe(2-Me)]RLVTCA-NH2; thioether N-14),0.11
6,CCC(C)[C@@H]1NC(=O)[C@H](Cc2ccc(-c3ccccc3)cc2)NC(=O)[C@H](C(C)C)NC(=O)[C@H](Cc2c[nH]c3ccccc23)NC(=O)[C@H](CC(=O)O)NC(=O)[C@H](Cc2ccc(O)cc2)NC(=O)[C@H](Cc2ccc(CN)cc2)NC(=O)CSC[C@@H](C(=O)N[C@@H](C)C(N)=O)NC(=O)[C@H](C(C)O)NC(=O)[C@H](C(C)C)NC(=O)[C@H](CC2CCCCC2)NC(=O)[C@H](CC(N)=O)NC(=O)[C@@H](CC(C)C)NC(=O)[C@H](C)N(C)C1=O (stereo partly drawn) [Compound 2047] ({CH2CO}-[Phe(4-CH2NH2)]YDWV[Bip][Ile(3ξ)][NMeA][dL]N[Cha]V[Thr(3ξ)]CA-NH2; thioether N-14),0.06
7,CNC[C@@H]1NC(=O)CSC[C@@H](C(=O)N[C@@H](C)C(N)=O)NC(=O)[C@H](C(C)O)NC(=O)[C@H](C(C)C)NC(=O)[C@H](CC(C)C)NC(=O)[C@H](CCN)NC(=O)[C@@H](CC(C)C)NC(=O)[C@H](C)N(C)C(=O)[C@H](CCCNC(N)=O)NC(=O)[C@H](Cc2ccc(-c3ccccc3)cc2)NC(=O)[C@H](C(C)C)NC(=O)[C@H](Cc2c[nH]c3ccccc23)NC(=O)[C@H](CC(=O)O)NC(=O)[C@H](Cc2ccc(O)cc2)NC1=O (stereo partly drawn) [Compound 2034] ({CH2CO}-[Dap(Me)]YDWV[Bip][Cit][NMeA][dL][Dab]LV[Thr(3ξ)]CA-NH2; thioether N-14),0.06
8,CC(C)C[C@@H]1NC(=O)[C@H](CCCN)NC(=O)[C@@H](CC(C)C)NC(=O)[C@H](C)N(C)C(=O)[C@H](CCCN)NC(=O)[C@H](Cc2ccc(-c3ccccc3)cc2)NC(=O)[C@H](C(C)C)NC(=O)[C@H](Cc2c[nH]c3ccccc23)NC(=O)[C@H](CC(=O)O)NC(=O)[C@H](Cc2ccc(O)cc2)NC(=O)[C@H](CC(N)=O)NC(=O)CSC[C@@H](C(=O)N[C@@H](C)C(N)=O)NC(=O)[C@H]([C@@H](C)O)NC(=O)[C@H](C(C)C)NC1=O [Compound 1241] ({CH2CO}-NYDWV[Bip][Orn][NMeA][dL][Orn]LVTCA-NH2; thioether N-14),0.02
9,CC(C)C[C@@H]1NC(=O)[C@H](Cc2c[nH]c3ccccc23)NC(=O)[C@H](CC(=O)O)NC(=O)[C@H](Cc2ccncc2)NC(=O)[C@H](CN)NC(=O)CSC[C@@H](C(=O)N[C@@H](C)C(N)=O)NC(=O)[C@H](CO)NC(=O)[C@H](C(C)C)NC(=O)[C@H](CC(C)C)NC(=O)[C@H](CC(N)=O)NC(=O)[C@@H](C)NC(=O)[C@H](C)N(C)C(=O)[C@H](C(C)C)NC(=O)[C@H](Cc2ccc(-c3ccccc3)cc2)NC1=O [Compound 1561] ({CH2CO}-[Dap][4Pal]DWL[Bip]V[NMeA][dA]NLVSCA-NH2; thioether N-14),0.03
10,CC(C)C[C@@H]1NC(=O)[C@H](CCN)NC(=O)[C@@H](CC(C)C)NC(=O)[C@H](C)N(C)C(=O)[C@H](Cc2ccc(O)cc2)NC(=O)[C@H](Cc2ccc(-c3ccccc3)cc2)NC(=O)[C@H](C(C)C)NC(=O)[C@H](Cc2c[nH]c3ccccc23)NC(=O)[C@H](CC(=O)O)NC(=O)[C@H](Cc2ccc(O)cc2)NC(=O)[C@H](CC(N)=O)NC(=O)CSC[C@@H](C(=O)N[C@@H](C)C(N)=O)NC(=O)[C@H]([C@@H](C)O)NC(=O)[C@H](C(C)C)NC1=O [Compound 1303] ({CH2CO}-NYDWV[Bip]Y[NMeA][dL][Dab]LVTCA-NH2; thioether N-14),0.07
11,CCCC[C@@H]1NC(=O)[C@H](Cc2ccc(-c3ccccc3)cc2)NC(=O)[C@H](C(C)C)NC(=O)[C@H](Cc2c[nH]c3ccccc23)NC(=O)[C@H](CC(=O)O)NC(=O)[C@H](Cc2ccc(O)cc2)NC(=O)[C@H](CC(N)=O)NC(=O)CSC[C@@H](C(=O)N[C@@H](C)C(N)=O)NC(=O)[C@H]([C@@H](C)O)NC(=O)[C@H](C(C)C)NC(=O)[C@H](CC(C)C)NC(=O)[C@H](CCN)NC(=O)[C@@H](CC(C)C)NC(=O)[C@H](C)N(C)C1=O [Compound 1271] ({CH2CO}-NYDWV[Bip][Nle][NMeA][dL][Dab]LVTCA-NH2; thioether N-14),0.03
12,Cc1cccc(C[C@@H]2NC(=O)[C@H](CC(=O)O)NC(=O)[C@H](Cc3ccc(O)cc3)NC(=O)[C@H](CC(N)=O)NC(=O)CSC[C@@H](C(=O)N[C@@H](CCN)C(N)=O)NC(=O)[C@H](CCC(=O)O)NC(=O)[C@H](C(C)C)NC(=O)[C@H](CC3CCCCC3)NC(=O)[C@H](CCN)NC(=O)[C@@H](CC(C)C)NC(=O)[C@H](C)N(C)C(=O)[C@H](CCCNC(N)=O)NC(=O)[C@H](Cc3ccc(-c4ccccc4)cc3)NC(=O)[C@H](C(C)(C)O)NC2=O)c1 [Compound 1709] ({CH2CO}-NYD[Phe(3-Me)][Val(3-OH)][Bip][Cit][NMeA][dL][Dab][Cha]VEC[Dab]-NH2; thioether N-14),0.03
13,CC(C)C[C@@H]1NC(=O)[C@H](CCN)NC(=O)[C@@H](CC(C)C)NC(=O)[C@H](C)N(C)C(=O)[C@H](CCCNC(=N)N)NC(=O)[C@H](Cc2ccc(-c3ccccc3)cc2)NC(=O)[C@H](C(C)C)NC(=O)[C@H](Cc2c[nH]c3ccccc23)NC(=O)[C@H](CC(=O)O)NC(=O)[C@H](Cc2ccc(O)cc2)NC(=O)[C@H](CCCNC(=N)N)NC(=O)CSC[C@@H](C(=O)N[C@@H](C)C(N)=O)NC(=O)[C@H]([C@@H](C)O)NC(=O)[C@H](C(C)C)NC1=O [Compound 1343] ({CH2CO}-RYDWV[Bip]R[NMeA][dL][Dab]LVTCA-NH2; thioether N-14),0.04
14,CC(C)C[C@H]1NC(=O)[C@H](C)N(C)C(=O)[C@H](CCC(=O)O)NC(=O)[C@H](Cc2ccc(-c3ccccc3)cc2)NC(=O)[C@H](C(C)C)NC(=O)[C@H](Cc2c[nH]c3ccccc23)NC(=O)[C@H](CC(=O)O)NC(=O)[C@H](Cc2ccc(O)cc2)NC(=O)[C@H](CCCCNC(=N)N)NC(=O)CSC[C@@H](C(=O)NCC(N)=O)NC(=O)[C@H](C(C)O)NC(=O)[C@H](C(C)C)NC(=O)[C@H](CC2CCCCC2)NC(=O)[C@H](CCN)NC1=O (stereo partly drawn) [Compound 2094] ({CH2CO}-[hArg]YDWV[Bip]E[NMeA][dL][Dab][Cha]V[Thr(3ξ)]CG-NH2; thioether N-14),0.02
15,Cc1cccc(C[C@@H]2NC(=O)[C@H](CC(=O)O)NC(=O)[C@H](Cc3ccc(C(=O)O)cc3)NC(=O)[C@H](Cc3ccsc3)NC(=O)CSC[C@@H](C(=O)N[C@@H](CCN)C(N)=O)NC(=O)[C@H](CO)NC(=O)[C@H](C(C)(C)O)NC(=O)[C@H](CC3CCCCC3)NC(=O)[C@H](CCN)NC(=O)[C@@H](CC(C)C)NC(=O)[C@H](C)N(C)C(=O)[C@H](Cc3ccc(OCC(=O)O)cc3)NC(=O)[C@H](Cc3ccc(-c4ccccc4)cc3)NC(=O)[C@H](Cc3ccc(OCC(=O)O)cc3)NC2=O)c1 [Compound 2133] ({CH2CO}-[3Thi][Phe(4-COOH)]D[Phe(3-Me)]Y(Carboxymethyl)[Bip]Y(Carboxymethyl)[NMeA][dL][Dab][Cha][Val(3-OH)]SC[Dab]-NH2; thioether N-14),0.01
